Source: patent US20140249135A1, “PIM KINASE INHIBITORS AND METHODS OF THEIR USE” (NOVARTIS AG, priority 2007, published 2014)
Read-outs that look alike come from different tables or passages of the source.

Key:
Type in all cases: biochemical
Pim1 kinase = Pim1 kinase (Homo sapiens, UniProt P11309); assay: Pim1 ATP depletion assay; conditions: Pim1 ATP depletion assay;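 further: Luciferase-luciferin luminescence readout of residual ATP after PIM1 transfers phosphate to a peptide substrate, 40 µM ATP added, reaction run to roughly half ATP consumption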
Chain of Pim1 kinase (P11309 whole entry): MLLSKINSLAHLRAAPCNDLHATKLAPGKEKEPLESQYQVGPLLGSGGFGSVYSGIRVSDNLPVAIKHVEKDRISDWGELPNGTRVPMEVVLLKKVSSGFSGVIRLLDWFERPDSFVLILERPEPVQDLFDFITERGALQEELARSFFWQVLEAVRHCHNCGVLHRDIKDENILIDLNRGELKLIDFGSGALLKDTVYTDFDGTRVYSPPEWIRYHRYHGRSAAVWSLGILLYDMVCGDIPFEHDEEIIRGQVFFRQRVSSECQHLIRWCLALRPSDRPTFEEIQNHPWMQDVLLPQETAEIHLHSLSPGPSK

Pim2 kinase = Pim2 kinase (Homo sapiens, UniProt Q9P1W9); assay: Pim2 ATP depletion assay;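 further: Luciferase-based luminescent readout of ATP remaining after PIM2 phosphorylates a BAD peptide, final 5 nM enzyme, 4 µM ATP, 10 µM peptide, 2.5% DMSO, run to roughly half ATP consumption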
Chain of Pim2 kinase (Q9P1W9 whole entry): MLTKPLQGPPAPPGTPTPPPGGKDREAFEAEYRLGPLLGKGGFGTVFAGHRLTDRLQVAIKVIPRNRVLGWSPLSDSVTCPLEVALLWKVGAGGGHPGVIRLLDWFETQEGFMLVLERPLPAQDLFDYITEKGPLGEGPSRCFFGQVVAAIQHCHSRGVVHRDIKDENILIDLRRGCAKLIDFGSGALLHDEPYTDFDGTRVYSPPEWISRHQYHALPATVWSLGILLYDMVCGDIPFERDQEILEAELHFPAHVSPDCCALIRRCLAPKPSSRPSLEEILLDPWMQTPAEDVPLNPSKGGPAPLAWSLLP

Pim3 kinase = Pim3 kinase (Homo sapiens, UniProt Q86V86); assay: Pim3 ATP depletion assay
[1] = molecular target: T1, human full length PKCE enzyme (Homo sapiens, UniProt Q02156); assay: In vitro PKCE assay; conditions: 10 nM enzyme, 40 uM peptide substrate, 20 uM ATP, KinaseGlo Plus readout; read-out: PKCε IC50
T1 construct: human full length PKCE enzyme purchased from InVitrogen; purchased InVitrogen
T1 sequence (Q02156 1-737): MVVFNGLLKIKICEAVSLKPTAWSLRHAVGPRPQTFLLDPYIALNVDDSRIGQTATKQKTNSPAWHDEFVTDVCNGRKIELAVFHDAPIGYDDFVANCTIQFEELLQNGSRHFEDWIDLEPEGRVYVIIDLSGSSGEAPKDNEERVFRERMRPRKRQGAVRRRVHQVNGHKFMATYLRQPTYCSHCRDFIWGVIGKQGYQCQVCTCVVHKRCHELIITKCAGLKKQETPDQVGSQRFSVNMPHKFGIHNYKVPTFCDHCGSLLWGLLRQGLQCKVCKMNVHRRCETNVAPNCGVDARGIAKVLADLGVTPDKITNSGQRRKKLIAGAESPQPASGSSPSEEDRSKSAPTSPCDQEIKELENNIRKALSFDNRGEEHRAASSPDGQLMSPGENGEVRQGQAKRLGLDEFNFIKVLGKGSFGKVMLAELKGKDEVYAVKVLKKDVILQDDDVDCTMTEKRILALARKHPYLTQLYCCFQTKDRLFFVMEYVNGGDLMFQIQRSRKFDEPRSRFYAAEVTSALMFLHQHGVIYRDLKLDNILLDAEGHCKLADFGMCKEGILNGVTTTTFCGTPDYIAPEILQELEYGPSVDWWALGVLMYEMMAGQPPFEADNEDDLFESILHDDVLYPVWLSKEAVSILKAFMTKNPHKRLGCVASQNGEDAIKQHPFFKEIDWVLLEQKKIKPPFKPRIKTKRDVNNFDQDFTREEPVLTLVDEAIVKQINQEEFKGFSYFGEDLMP

Structure (SMILES) | IC50 (Pim1 kinase; read-out: IC50 (μM) PIM1) | IC50 (Pim2 kinase; read-out: IC50 (μM) PIM2) | IC50 (Pim3 kinase; read-out: IC50 (μM) PIM3) | IC50 [1] | IC50 (Pim1 kinase; read-out: PIM1 IC50) | IC50 (Pim2 kinase; read-out: PIM2 IC50) | IC50 (Pim3 kinase; read-out: PIM3 IC50)
Nc1nccnc1C(=O)Nc1[nH]c(=O)ncc1-c1ccco1 [Example 136, 3-amino-N-[5-(2-furyl)-2-oxo-2,3-dihydropyrimidin-4-yl]-pyrazine-2-carboxamide] | < 1 µM | < 1 µM | < 1 µM | 1000 to 10000 nM |  |  | 
Nc1nccnc1C(=O)Nc1[nH]c(=O)ncc1N1CCC(C(F)(F)F)CC1 [Example 152, 3-amino-N-{2-oxo-5-[4-(trifluoromethyl)piperidin-1-yl]-2,3-dihydropyrimidin-4-yl}-pyrazine-2-carboxamide] | < 1 µM | < 1 µM | < 1 µM | < 1000 nM |  |  | 
COc1ccccc1-c1cnc(N)c(C(=O)Nc2[nH]c(=O)ncc2N2CCCCC2)n1 [Example 594, 3-amino-6-(2-methoxy-phenyl)-pyrazine-2-carboxylic acid (2-oxo-5-piperidin-1-yl-2,3-dihydro-pyrimidin-4-yl)-amide] |  |  |  | > 25000 nM | < 1 µM | < 1 µM | < 1 µM
NC[C@H]1CCCN1c1ccncc1NC(=O)c1nccnc1N [Example 192, 3-amino-N-{4-[(2R)-2-(amino-methyl)pyrrolidin-1-yl]pyridin-3-yl}pyrazine-2-carboxamide] | > 25 µM | > 25 µM | > 25 µM | > 25000 nM |  |  | 
Cn1cccc1-c1cnc(=O)[nH]c1NC(=O)c1nccnc1N [Example 139, 3-amino-N-[5-(1-methyl-1H-pyrrol-2-yl)-2-oxo-2,3-dihydro-pyrimidin-4-yl]pyrazine-2-carboxamide] | < 1 µM | < 1 µM | < 1 µM | < 1000 nM |  |  | 
Cc1ccccc1-c1cnc(N)c(C(=O)Nc2cnccc2N2CCCC(N)C2)n1 (centres unmarked) [Example 351, 3-amino-6-o-tolyl-pyrazine-2-carboxylic acid (3-amino-3,4,5,6-tetrahydro-2H-[1,4′]bi-pyridinyl-3′-yl)-amide] | < 1 µM | < 1 µM | < 1 µM | < 1000 nM |  |  | 
NC(=O)c1ccc(N2CCCCC2)c(NC(=O)c2nccnc2N)c1 [Example 129, 3-amino-N-(5-carbamoyl-2-piperidin-1-ylphenyl)pyrazine-2-carboxamide] |  |  |  | 1000 to 10000 nM |  |  | 
Nc1ncc(-c2ccccc2OC(F)(F)F)nc1C(=O)Nc1[nH]c(=O)ncc1N1CCCCC1 [Example 596, 3-amino-6-(2-trifluoromethoxy-phenyl)-pyrazine-2-carboxylic acid (2-oxo-5-piperidin-1-yl-2,3-dihydro-pyrimidin-4-yl)-amide] |  |  |  | > 25000 nM | < 1 µM | < 1 µM | < 1 µM
Nc1nccnc1C(=O)Nc1[nH]c(=O)ncc1-c1cccs1 [Example 137, 3-amino-N-[2-oxo-5-(2-thienyl)-2,3-dihydropyrimidin-4-yl]-pyrazine-2-carboxamide] | < 1 µM | < 1 µM | < 1 µM | < 1000 nM |  |  | 
Cn1cccc1-c1cnc(=O)[nH]c1NC(=O)c1nc(Br)cnc1N [Example 144, 3-amino-6-bromo-N-[5-(1-methyl-1H-pyrrol-2-yl)-2-oxo-2,3-dihydropyrimidin-4-yl]-pyrazine-2-carboxamide] |  |  |  | 1000 to 10000 nM |  |  | 
NCCOc1ccncc1NC(=O)c1nccnc1N [Example 194, 3-amino-N-[4-(2-amino-ethoxy)pyridin-3-yl]pyrazine-2-carboxamide] | > 25 µM | > 25 µM | > 25 µM | > 25000 nM |  |  | 
Nc1ncc(-c2ccncc2)nc1C(=O)Nc1cnccc1N1CCCC(N)C1 (centres unmarked) [Example 354, 3-amino-6-pyridin-4-yl-pyrazine-2-carboxylic acid (3-amino-3,4,5,6-tetrahydro-2H-[1,4′]bipyridinyl-3′-yl)-amide] |  |  |  | 1000 to 10000 nM |  |  | 
Nc1nccnc1C(=O)Nc1[nH]c(=O)ncc1N1CCC(F)CC1 [Example 149, 3-amino-N-[5-(4-fluoro-piperidin-1-yl)-2-oxo-2,3-dihydropyrimidin-4-yl]pyrazine-2-carboxamide] |  |  |  | 1000 to 10000 nM |  |  | 
Nc1nccnc1C(=O)Nc1cnccc1N1CCC(N)C1 (centres unmarked) [Example 190, 3-amino-N-[4-(3-amino-pyrrolidin-1-yl)pyridin-3-yl]-pyrazine-2-carboxamide] |  |  |  | > 25000 nM |  |  | 
CC1(N)CCCN(c2ccncc2NC(=O)c2nc(-c3ccccc3F)ncc2N)C1 (centres unmarked) [Example 676, 5-Amino-2-(2-fluoro-phenyl)-pyrimidine-4-carboxylic acid (3-amino-3-methyl-3,4,5,6-tetrahydro-2H-[1,4′]bi-pyridinyl-3′-yl)-amide] |  |  |  |  | < 1 µM | < 1 µM | < 1 µM
Nc1ncc(Br)nc1C(=O)Nc1cnccc1N1CCCC(N(Cc2ccccc2)Cc2ccccc2)C1 (centres unmarked) [Example 599, 3-amino-6-bromo-pyrazine-2-carboxylic acid (3-dibenzylamino-3,4,5,6-tetrahydro-2H-[1,4′]bi-pyridinyl-3′-yl)-amide] |  |  |  |  | < 1 µM | 1 to 10 µM | 1 to 10 µM
Nc1ccc(-c2ncc(C(F)(F)F)cc2Cl)nc1C(=O)Nc1cnccc1N1CCC[C@H](N)C1 [Example 720, 5-Amino-3′-chloro-5′-trifluoro-methyl-[2,2′]bipyridinyl-6-carboxylic acid (3-amino-3,4,5,6-tetrahydro-2H-[1,4′]bi-pyridinyl-3′-yl)-amide] |  |  |  |  | < 1 µM | < 1 µM | < 1 µM
Nc1cncc(-c2ccncc2NC(=O)c2nc(-c3ccccc3F)ccc2N)n1 [Example 625, 3-amino-N-[4-(6-amino-pyrazin-2-yl)pyridin-3-yl]-6-(2-fluorophenyl)pyridine-2-carboxamide] |  |  |  |  | < 1 µM | < 1 µM | < 1 µM
N[C@H]1CCCN(c2ccncc2NC(=O)c2nc(-c3ccccc3)ccc2F)C1 [Example 568, 3-Fluoro-6-phenyl-pyridine-2-carboxylic acid (3-amino-3,4,5,6-tetrahydro-2H-[1,4′]bipyridinyl-3′-yl)-amide] |  |  |  |  | < 1 µM | < 1 µM | < 1 µM
CCOc1ccc(F)c(-c2ccc(N)c(C(=O)Nc3cnccc3N3CCC[C@H](N)C3)n2)c1 [Example 469, 3-Amino-6-(5-ethoxy-2-fluoro-phenyl)-pyridine-2-carboxylic acid (3-amino-3,4,5,6-tetrahydro-2H-[1,4′]bipyridinyl-3′-yl)-amide] | < 1 µM | < 1 µM | < 1 µM |  |  |  | 
Nc1ccc(-c2cccc(Cl)c2F)nc1C(=O)Nc1cnccc1N1CCC[C@H](N)C1 [Example 479, 3-Amino-6-(3-chloro-2-fluoro-phenyl)-pyridine-2-carboxylic acid (3-amino-3,4,5,6-tetrahydro-2H-[1,4′]bipyridinyl-3′-yl)-amide] | < 1 µM | < 1 µM | < 1 µM |  |  |  | 
Nc1ccc(-c2c(F)cccc2F)nc1C(=O)Nc1cnccc1-c1cc(Cl)nc(C(F)(F)F)c1 [Example 621, 3-amino-N-[2′-chloro-6′-(trifluoromethyl)-4,4′-bipyridin-3-yl]-6-(2,6-difluorophenyl)pyridine-2-carboxamide] |  |  |  |  | < 1 µM | < 1 µM | < 1 µM
N#Cc1ccsc1-c1ccc(N)c(C(=O)Nc2cnccc2N2CCC[C@H](N)C2)n1 [Example 490, 3-Amino-6-(3-cyano-thiophen-2-yl)-pyridine-2-carboxylic acid (3-amino-3,4,5,6-tetrahydro-2H-[1,4′]bipyridinyl-3′-yl)-amide] | < 1 µM | < 1 µM | < 1 µM |  |  |  | 
Nc1ccc(-c2c(F)cccc2F)nc1C(=O)Nc1cnccc1N1CCCCCCC1 [Example 167, 3-Amino-6-(2,6-difluoro-phenyl)-pyridine-2-carboxylic acid (4-azocan-1-yl-pyridin-3-yl)-amide] | < 1 µM | 1 to 10 µM | < 1 µM |  |  |  | 
Nc1ccc(-c2ccsc2)nc1C(=O)Nc1cnccc1N1CCC[C@H](N)C1 [Example 449, 3-Amino-6-thiophen-3-yl-pyridine-2-carboxylic acid (3-amino-3,4,5,6-tetrahydro-2H-[1,4′]bipyridinyl-3′-yl)-amide] | < 1 µM | < 1 µM | < 1 µM |  |  |  | 
Nc1ccc(-c2ccc(Cl)cc2F)nc1C(=O)Nc1cnccc1N1CCC[C@H](N)C1 [Example 420, 3-amino-6-(4-chloro-2-fluoro-phenyl)-pyridine-2-carboxylic acid ((S)-3-amino-3,4,5,6-tetra-hydro-2H-[1,4′]bipyridinyl-3′-yl)-amide] | < 1 µM | < 1 µM | < 1 µM |  |  |  | 
